Reference: patent US8022061B2, “N-aryl pyrazole compounds, compositions, and methods for their use” (Amgen Inc., priority 2006, dated 2011)

Key:
Type in all cases: in vivo
ob/ob mice = experiment: Increase of circulating insulin concentrations in treated ob/ob mice; settings: male ob/ob mice, dose 10 mg/kg p.o., 10 minutes after dosing, relative to control group
Description: The results presented below exemplify that administration of the compounds as provided herein to an art-recognized animal model of human diabetes can lead to increased circulating insulin concentrations in the animal model.
Male ob/ob mice were weighed and bled from tail vein, and blood glucose levels were determined with a glucometer. Animals were placed into control and treatment groups having similar averages of glucose levels and body weights. In the morning of the following day, animals were dosed with vehicle (control group) or test article (5 ml/kg, p.o.). Blood samples were collected just before and 10 minutes after dosing, and the samples were assayed for insulin and glucose concentrations.
Table 1 provides exemplary data showing the increase of circulating insulin concentrations (expressed as ng/ml) in treated mice relative to control group at 10 minutes after dosing the treated mice. Concentrations of the exemplary compound tested in the mice are provided in the righthand column.

[1] = tested on: glucose-challenged animal models of diabetes; experiment: Glucose-challenged animal models of diabetes, circulating insulin (FIG. 1); settings: glucose challenge, treated animals relative to control animals
Description: The following example describes how compounds can be evaluated in vivo in glucose-challenged animal models.
Art-recognized animal models of diabetes, such as type 2 diabetes, include diet-induced obese C57BL/6 (“B6”) mice and ob/ob mice. See, e.g., Breyer et al., J. Am. Soc. Nephrol. 16:27-45 (2005) and references cited therein.
Rats (aged 5-20) weeks or mice (aged 6-20 weeks) are fasted overnight beginning at 4 pm. Between 9 and 10 am, glucose levels are determined with a glucometer using whole blood samples removed from the tail. The animals are placed into control and treatment groups having similar averages of glucose levels and body weights or similar averages of body weights (B6 mice). Animals are pre-dosed with vehicle (control group) or test article (5-10 mL/kg, p.o., s.c. or i.p.) and then challenged with glucose (1 g/kg, p.o. or i.p.). Blood samples are then collected from the tail and assay for glucose and insulin levels.

C57B6 mice = experiment: Glucose lowering effect after oral glucose challenge in C57B6 mice; settings: male C57B6 mice, p.o. 30 minutes before oral glucose 3 g/kg; blood glucose before, 20 and 50 minutes after challenge; relative to control group
Description: The following example describes the glucose lowering effect of compounds observed in vivo.
Male C57B6 mice were placed into control and treatment groups having similar averages of body weights. Then, animals were dosed with vehicle (control group) or test article (5 ml/kg, p.o.). Thirty minutes after dosing, glucose (3 g/kg) was orally administered in each animal. Blood samples were collected just before, 20 minutes and 50 minutes after glucose challenge and glucose concentrations in the samples was assessed. The values in Table 2 represent the observed % AUC reduction of blood glucose in the treated animals relative to the control group.

Structure (SMILES)	Increase in Insulin (ob/ob mice)	circulating insulin levels [1]	% AUC reduction in glucose levels (C57B6 mice)
CCCc1c(C(=O)NC(C)c2ccncc2)cnn1-c1ncc(C)c(-c2cccs2)n1 (stereo not drawn) [1-[5-Methyl-4-(2-thienyl)pyrimidin-2-yl]-5-propyl-N-(1-pyridin-4-ylethyl)-1H-pyrazole-4-carboxamide]	3.9 ng/mL	increases in circulating insulin levels	
CCOCc1c(C(=O)NCc2cncn2C)cnn1-c1ncc(C)c(-c2ccsc2)n1 [5-(Ethoxymethyl)-N-[(1-methyl-1H-imidazol-5-yl)methyl]-1-[5-methyl-4-(3-thienyl)pyrimidin-2-yl]-1H-pyrazole-4-carboxamide]			51%
CCOCc1c(C(=O)NCc2c(CO)ncn2C)cnn1-c1ncc(C)c(-c2cccs2)n1 [5-(Ethoxymethyl)-N-{[4-(hydroxymethyl)-1-methyl-1H-imidazol-5-yl]methyl}-1-[5-methyl-4-(2-thienyl)pyrimidin-2-yl]-1H-pyrazole-4-carboxamide]			35%
CCCCc1c(C(=O)NCc2cnc3ccccn23)cnn1-c1ncc(Cl)c(NC2CC2)n1 [5-Butyl-1-[5-chloro-4-(cyclopropylamino)pyrimidin-2-yl]-N-(imidazo[1,2-a]pyridin-3-ylmethyl)-1H-pyrazole-4-carboxamide]			32%
CCCCc1c(C(=O)NCc2cncn2C)cnn1-c1ncc(Cl)c(NC2CC2)n1 [5-Butyl-1-[5-chloro-4-(cyclopropylamino)pyrimidin-2-yl]-N-[(1-methyl-1H-imidazol-5-yl)methyl]-1H-pyrazole-4-carboxamide]			7%
CCCCc1c(C(=O)NCc2cnc3ccccn23)cnn1-c1ncc(C)c(N2CCCC2)n1 [5-Butyl-N-(imidazo[1,2-a]pyridin-3-ylmethyl)-1-(5-methyl-4-pyrrolidin-1-ylpyrimidin-2-yl)-1H-pyrazole-4-carboxamide]			34%
CCCCc1c(C(=O)NCc2c(C)nc3ccccn23)cnn1-c1ncc(C)c(-c2cccs2)n1 [5-Butyl-N-[(2-methylimidazo[1,2-a]pyridin-3-yl)methyl]-1-[5-methyl-4-(2-thienyl)pyrimidin-2-yl]-1H-pyrazole-4-carboxamide]			35%
CCCCc1c(C(=O)NCc2c(C)ncn2CC(=O)O)cnn1-c1ncc(C)c(-c2cccs2)n1 [(5-{[({5-Butyl-1-[5-methyl-4-(2-thienyl)pyrimidin-2-yl]-1H-pyrazol-4-yl}carbonyl)amino]methyl}-4-methyl-1H-imidazol-1-yl)acetic acid]	3.9 ng/mL		19%
CCCCc1c(C(=O)NCc2cnc3cc(C(=O)OC)ccn23)cnn1-c1ncc(Cl)c(NC2CC2)n1 [Methyl 3-{[({5-butyl-1-[5-chloro-4-(cyclopropylamino)pyrimidin-2-yl]-1H-pyrazol-4-yl}carbonyl)amino]methyl}imidazo[1,2-a]pyridine-7-carboxylate]			24%
CCCc1c(C(=O)NCc2c(CO)ncn2C)cnn1-c1ncc(C)c(N2CCOCC2)n1 [N-{[4-(Hydroxymethyl)-1-methyl-1H-imidazol-5-yl]methyl}-1-(5-methyl-4-morpholin-4-ylpyrimidin-2-yl)-5-propyl-1H-pyrazole-4-carboxamide]			6%
CCCc1c(C(=O)NCc2c(CO)ncn2C)cnn1-c1ncc(C)c(-c2cccs2)n1 [N-{[4-(Hydroxymethyl)-1-methyl-1H-imidazol-5-yl]methyl}-1-[5-methyl-4-(2-thienyl)pyrimidin-2-yl]-5-propyl-1H-pyrazole-4-carboxamide]			35%
COCc1c(C(=O)NCc2c(CO)ncn2C)cnn1-c1ncc(C)c(N2CCCCC2)n1 [N-{[4-(Hydroxymethyl)-1-methyl-1H-imidazol-5-yl]methyl}-5-(methoxymethyl)-1-(5-methyl-4-piperidin-1-ylpyrimidin-2-yl)-1H-pyrazole-4-carboxamide]			14%
COCc1c(C(=O)NCc2c(CO)ncn2C)cnn1-c1ncc(C)c(-c2cccs2)n1 [N-{[4-(Hydroxymethyl)-1-methyl-1H-imidazol-5-yl]methyl}-5-(methoxymethyl)-1-[5-methyl-4-(2-thienyl)pyrimidin-2-yl]-1H-pyrazole-4-carboxamide]			14%
